Measurements: ChEMBL document CHEMBL1201862, “PubChem BioAssay data set” (2004)
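How tested: cells in 96-well plates exposed to compound for 48 hours at five concentrations. GI50 is the concentration that inhibits growth by half.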 The source made the active and inactive calls. Rule as the data show it: active = GI50 up to about 1.1 µM and inactive = higher.

How the values were obtained:
Experiment in all cases: NCI-60 cell line screen, 48 h
HOP-92 = test system: HOP-92
A498 = test system: A498
ACHN = test system: ACHN
TK-10 = test system: TK-10
T47D = test system: T47D
OVCAR-8 = test system: OVCAR-8
SW-620 = test system: SW-620
KM12 = test system: KM12
PC-3 = test system: PC-3
MOLT-4 = test system: MOLT-4
RXF 393 = test system: RXF 393
UO-31 = test system: UO-31
M14 = test system: M14
NCI-H522 = test system: NCI-H522
SNB-19 = test system: SNB-19
SNB-75 = test system: SNB-75
SR = test system: SR
786-0 = test system: 786-0
UACC-62 = test system: UACC-62
HCT-116 = test system: HCT-116

SMILES	GI50 (HOP-92)	GI50 (A498)	GI50 (ACHN)	GI50 (TK-10)	GI50 (T47D)	GI50 (OVCAR-8)	GI50 (SW-620)	GI50 (KM12)	GI50 (PC-3)	GI50 (MOLT-4)	GI50 (RXF 393)	GI50 (UO-31)	GI50 (M14)	GI50 (NCI-H522)	GI50 (SNB-19)	GI50 (SNB-75)	GI50 (SR)	GI50 (786-0)	GI50 (UACC-62)	GI50 (HCT-116)
COc1cccc2cc(C(=O)NC34CC5CC(CC(C5)C3)C4)c(=N)oc12	> 36.2 µM (inactive)	> 100 µM (inactive)	> 67.6 µM (inactive)	64 µM (inactive)	18.2 µM (inactive)	23.8 µM (inactive)	49.9 µM (inactive)	54.6 µM (inactive)	56.6 µM (inactive)	1.35 µM (inactive)	33.6 µM (inactive)	2.67 µM (inactive)	> 100 µM (inactive)	23.4 µM (inactive)	73.8 µM (inactive)	44.6 µM (inactive)	10.2 µM (inactive)	59.8 µM (inactive)	> 100 µM (inactive)	52.1 µM (inactive)
CN(CCc1ccccn1)C(=S)N/N=C(\c1ccccc1)c1ccccn1	1.73 µM (inactive)	< 0.01 µM (active)	< 0.01 µM (active)	0.524 µM (active)	< 0.01 µM (active)	< 0.01 µM (active)	< 0.01 µM (active)	0.0194 µM (active)	< 0.01 µM (active)	< 0.01 µM (active)	1.09 µM (active)	0.0192 µM (active)	< 0.0394 µM (active)	< 0.01 µM (active)	0.215 µM (active)	1.3 µM (inactive)	0.0489 µM (active)	0.0419 µM (active)	0.23 µM (active)	< 0.01 µM (active)
O=C1Nc2ccccc2/C1=N/NC(=S)Nc1ccc(Cl)cc1	51.4 µM (inactive)	18.3 µM (inactive)	25.6 µM (inactive)	16.1 µM (inactive)	83 µM (inactive)	18.2 µM (inactive)	29.4 µM (inactive)	5.77 µM (inactive)	33.7 µM (inactive)	26.1 µM (inactive)	39.4 µM (inactive)	38.8 µM (inactive)	15 µM (inactive)	57 µM (inactive)	41.8 µM (inactive)	33 µM (inactive)	10.8 µM (inactive)	22.3 µM (inactive)	50.7 µM (inactive)	24.9 µM (inactive)
CCOC(=O)c1c(Nc2ccccc2)sc2cccnc12	1.9 µM (inactive)	3.56 µM (inactive)	14.2 µM (inactive)	11.2 µM (inactive)	28 µM (inactive)	25.1 µM (inactive)	24 µM (inactive)	18.9 µM (inactive)	11.1 µM (inactive)	15.6 µM (inactive)	25.7 µM (inactive)	1.94 µM (inactive)	4.49 µM (inactive)	21 µM (inactive)	7.66 µM (inactive)	19.9 µM (inactive)	9.44 µM (inactive)	11.6 µM (inactive)	11.9 µM (inactive)	5.92 µM (inactive)
O=C(O)C(Cl)(c1ccccc1)c1ccccc1	> 100 µM (inactive)	> 100 µM (inactive)	> 100 µM (inactive)	> 100 µM (inactive)	> 100 µM (inactive)	> 100 µM (inactive)	> 100 µM (inactive)	> 100 µM (inactive)	> 100 µM (inactive)	> 100 µM (inactive)	> 100 µM (inactive)	> 100 µM (inactive)	> 100 µM (inactive)	> 100 µM (inactive)	> 100 µM (inactive)	> 100 µM (inactive)	> 100 µM (inactive)	> 100 µM (inactive)	> 100 µM (inactive)	> 100 µM (inactive)
C#CCn1c(I)cc2c(c1=O)COC(=O)[C@]2(O)CC	> 100 µM (inactive)	> 100 µM (inactive)	> 100 µM (inactive)	> 100 µM (inactive)	> 100 µM (inactive)	> 100 µM (inactive)	> 100 µM (inactive)	> 100 µM (inactive)	> 100 µM (inactive)	> 100 µM (inactive)	> 100 µM (inactive)	> 100 µM (inactive)	> 100 µM (inactive)	> 100 µM (inactive)	> 100 µM (inactive)	> 100 µM (inactive)	> 100 µM (inactive)	> 100 µM (inactive)	> 100 µM (inactive)	> 100 µM (inactive)
CCN(CC)C1Oc2cc3c(cc2C(c2cc(OC)c(O)c(OC)c2)C1C)OCO3 (stereo not given)	15.5 µM (inactive)	24.6 µM (inactive)	18.3 µM (inactive)	24.9 µM (inactive)	16.8 µM (inactive)	14.8 µM (inactive)	4.62 µM (inactive)	4.44 µM (inactive)	14.4 µM (inactive)	6.08 µM (inactive)	6.95 µM (inactive)	19.6 µM (inactive)	4.69 µM (inactive)	3.1 µM (inactive)	16.2 µM (inactive)	3.48 µM (inactive)	4.57 µM (inactive)	10.4 µM (inactive)	4.49 µM (inactive)	4.53 µM (inactive)
COc1cc2c(cc1OC(=O)c1cc3ccccc3[nH]1)N=C[C@@H]1CCCN1C2=O	0.542 µM (active)	0.219 µM (active)	0.244 µM (active)	0.355 µM (active)	0.851 µM (active)	0.462 µM (active)	0.325 µM (active)	0.433 µM (active)	0.585 µM (active)	0.18 µM (active)	0.165 µM (active)	0.129 µM (active)	0.18 µM (active)	0.157 µM (active)	0.352 µM (active)	1.41 µM (inactive)	0.174 µM (active)	0.261 µM (active)	0.269 µM (active)	0.41 µM (active)
CC(C)C(C/C=C1/CC(CO)(COC(=O)C(C)(C)C)OC1=O)C(C)C (stereo not given)	10.4 µM (inactive)	7.67 µM (inactive)	5.9 µM (inactive)	3.72 µM (inactive)	4.52 µM (inactive)	19 µM (inactive)	3.31 µM (inactive)	13.8 µM (inactive)	6.24 µM (inactive)	0.514 µM (active)	15.6 µM (inactive)	4.07 µM (inactive)	11.7 µM (inactive)	12.6 µM (inactive)	12.9 µM (inactive)	5.45 µM (inactive)	14.9 µM (inactive)	3.23 µM (inactive)	12.9 µM (inactive)	14.3 µM (inactive)
COc1cc(O)c(C(=O)/C=C/c2ccc(O)cc2)cc1Oc1ccc(C(=O)/C=C/c2ccc(O)cc2)c(O)c1 [RHUSCHALCONE IV]	4.36 µM (inactive)	2.05 µM (inactive)	2.4 µM (inactive)	3.42 µM (inactive)	2.29 µM (inactive)	2.59 µM (inactive)	3.36 µM (inactive)	1.44 µM (inactive)	3.78 µM (inactive)	3.13 µM (inactive)	2.48 µM (inactive)	2.56 µM (inactive)	3.9 µM (inactive)	1.94 µM (inactive)	4.53 µM (inactive)	4.21 µM (inactive)	2.38 µM (inactive)	2.23 µM (inactive)	2.33 µM (inactive)	1.8 µM (inactive)
CCN1CCN(c2ccc(Nc3ccnc4ccc5c(nnn5C)c34)cc2)CC1	4.8 µM (inactive)	14.8 µM (inactive)	2.99 µM (inactive)	15.3 µM (inactive)	16 µM (inactive)	13.1 µM (inactive)	3.93 µM (inactive)	3.51 µM (inactive)	5.28 µM (inactive)	4.45 µM (inactive)	7.19 µM (inactive)	10.2 µM (inactive)	10.7 µM (inactive)	1.1 µM (active)	3.15 µM (inactive)	13.9 µM (inactive)	2.51 µM (inactive)	3.86 µM (inactive)	13.7 µM (inactive)	3.44 µM (inactive)
N#Cc1ccc(OC(=O)c2ccc(NC(=N)N)cc2)cc1.c1ccncc1	93.5 µM (inactive)	> 100 µM (inactive)	> 100 µM (inactive)	> 100 µM (inactive)	42.5 µM (inactive)	> 100 µM (inactive)	35.5 µM (inactive)	57 µM (inactive)	> 100 µM (inactive)	38.5 µM (inactive)	> 100 µM (inactive)	> 100 µM (inactive)	> 100 µM (inactive)	30 µM (inactive)	56.2 µM (inactive)	43.9 µM (inactive)	51.9 µM (inactive)	66.1 µM (inactive)	> 100 µM (inactive)	59.3 µM (inactive)
